Data: patent US20110118314A1, “PIPERIDINE ANALOGS AS GLYCOGEN SYNTHASE ACTIVATORS” (priority 2009, published 2011)

Tested on: glycogen synthase
Assay: Glycogen Synthase (GS) Assay
Format: biochemical
Settings: for EC50: compound concentration needed to give 50% maximum activation; for GS SC200: compound concentration needed to stimulate 200% of the enzyme activity
Description: The following tests were carried out in order to determine the activity of the compounds of formula (I).
Twelve μL per well of substrate solution containing glycogen (4.32 mg/mL), 2.67 mM UDP-glucose, 21.6 mM phospho(enol)pyruvate and 2.7 mM NADH in 30 mM glycylglycine, pH 7.3 buffer was added into a polystyrene 384-well assay plate (BD Biosciences).
Compound solutions (8 μL/well) at various concentrations (0-300 μM) were added to the assay plate (columns 5-24). Compound solution contains 30 mM glycylglycine, pH 7.3, 40 mM KCl, 20 mM MgC12, 9.2% DMSO, with (columns 15-24) or without (columns 5-14) 20 mM glucose 6-phosphate.
Enzyme solution (12 μL/well) containing glycogen synthase (16.88 μg/mL), pyruvate kinase (0.27 mg/mL), lactate dehydrogenase (0.27 mg/mL) in 50 mM Tris-HCl, pH 8.0, 27 mM DTT and bovine serum albumin (BSA, 0.2 mg/mL) was added to the assay plate (columns 3-24). As a blank control, enzyme solution without glycogen synthase was added into the top half wells of columns 1-2. To the bottom half wells of columns 1-2 were added a known activator, glucose 6-phosphate (at final concentration 5 mM) in addition to the enzyme solution. The reaction mixture was incubated at room temperature. The assay plate was then read for absorbance at 340 nm on an Envision reader every 3 minutes up to a total of 15 minutes.
The enzyme activity (with or without compound) was calculated by the reaction rate and represented by the optical density change (SOD) per minute. Percent stimulation of glycogen synthase activity by a compound at various concentrations was calculated by the following formula: […]
where Rs is the reaction rate of the enzyme in the presence of compound and Rt is the reaction rate of the enzyme in the absence of compound.
SC200 is defined as the compound concentration that is needed to stimulate 200% of the enzyme activity. EC50 is defined as the compound concentration that is needed to give 50% maximum activation.
Compounds from Example 1 through Example 36 were assayed according to assay procedures described above and the results are listed in Table 1 below: […]

Row | Structure (SMILES) | EC50 [µM] | GS SC200 [µM]
1 | COc1cc(F)c(F)cc1-c1ccc(OC[C@H]2CCCN(C(=O)CC(=O)O)C2)cc1 (single isomer, unassigned) [Example 3] | 0.35 | 0.21
2 | COc1cc(F)c(F)cc1-c1ccc(OC[C@@H]2CCCN(C(=O)CC(=O)O)C2)cc1 (single isomer, unassigned) [Example 4] | 1.74 | 1.18
3 | COc1cc(F)c(F)cc1-c1ccc(OC[C@@H]2CCCN(C(=O)N(CC(=O)O)Cc3ccccc3)C2)cc1 (single isomer, unassigned) [Example 23] | 0.95 | 0.23
4 | COc1cc(F)c(F)cc1-c1ccc(OC[C@H]2CCCN(C(=O)N(CC(=O)O)Cc3ccccc3)C2)cc1 (single isomer, unassigned) [Example 24] | 4.76 | 1.99
5 | COc1cc(F)c(F)cc1-c1ccc(OCC2CCCN(C(=O)[C@H]3CCC[C@@H]3C(=O)O)C2)cc1 (stereo in doubt) [Example 7, 2-[3-(4′,5′-Difluoro-2′-methoxy-biphenyl-4-yloxymethyl)-piperidine-1-carbonyl]-cyclopentanecarboxylic acid] | 6.28 | 1.55
6 | COc1cc(F)c(F)cc1-c1ccc(OCC2CCCN(C(=O)C3(C(=O)O)CC3)C2)cc1 (stereo not drawn) [Example 1, 1-[3-(4′,5′-Difluoro-2′-methoxy-biphenyl-4-yloxymethyl)-piperidine-1-carbonyl]-cyclopropanecarboxylic acid] | 3.4 | 1.1
7 | COc1cc(F)c(F)cc1-c1ccc(OCC2CCCN(C(=O)CC(=O)O)C2)cc1 (stereo not drawn) [Example 2, 3-[3-(4′,5′-Difluoro-2′-methoxy-biphenyl-4-yloxymethyl)-piperidin-1-yl]-3-oxo-propionic acid] | 0.51 | 0.05
8 | CONC(=O)CC(=O)N1CCCC(COc2ccc(-c3cc(F)c(F)cc3OC)cc2)C1 (stereo not drawn) [Example 5, 3-[3-(4′,5′-Difluoro-2′-methoxy-biphenyl-4-yloxymethyl)-piperidin-1-yl]-N-methoxy-3-oxo-propionamide] | 6.42 | 0.99
9 | COc1cc(F)c(F)cc1-c1ccc(OCC2CCCN(C(=O)CC(=O)NO)C2)cc1 (stereo not drawn) [Example 6, 3-[3-(4′,5′-Difluoro-2′-methoxy-biphenyl-4-yloxymethyl)-piperidin-1-yl]-N-hydroxy-3-oxo-propionamide] | 5.54 | 2.37
10 | COc1cc(F)c(F)cc1-c1ccc(OCC2CCCN(C(=O)[C@H](C)CC(=O)O)C2)cc1 (stereo partly drawn) [Example 8, (R)(+)-4-[3-(4′,5′-Difluoro-2′-methoxy-biphenyl-4-yloxymethyl)-piperidin-1-yl]-3-methyl-4-oxo-butyric acid] | 8.03 | 2.35
11 | COc1cc(F)c(F)cc1-c1ccc(OCC2CCCN(C(N)=O)C2)cc1 (stereo not drawn) [Example 9, 3-(4′,5′-Difluoro-2′-methoxy-biphenyl-4-yloxymethyl)-piperidine-1-carboxylic acid amide] | 6.26 | 2.22
12 | COc1cc(F)c(F)cc1-c1ccc(OCC2CCCN(C(=O)[C@@H](CC(=O)O)NC(=O)OC(C)(C)C)C2)cc1 (stereo partly drawn) [Example 10, (R)-3-tert-Butoxycarbonylamino-4-[3-(4′,5′-difluoro-2′-methoxy-biphenyl-4-yloxymethyl)-piperidin-1-yl]-4-oxo-butyric acid] | 5.71 | 1.51
13 | COc1cc(F)c(F)cc1-c1ccc(OCC2CCCN(C(=O)[C@@H](CC(=O)O)NC(C)=O)C2)cc1 (stereo partly drawn) [Example 11, (R)-3-Acetylamino-4-[3-(4′,5′-difluoro-2′-methoxy-biphenyl-4-yloxymethyl)-piperidin-1-yl]-4-oxo-butyric acid] | 1.93 | 0.42
14 | COc1cc(F)c(F)cc1-c1ccc(OCC2CCCN(C(=O)[C@H](CC(=O)O)NC(=O)OC(C)(C)C)C2)cc1 (stereo partly drawn) [Example 12, (S)-3-tert-Butoxycarbonylamino-4-[3-(4′,5′-difluoro-2′-methoxy-biphenyl-4-yloxymethyl)-piperidin-1-yl]-4-oxo-butyric acid] | 11.1 | 3.74
15 | COc1cc(F)c(F)cc1-c1ccc(OCC2CCCN(C(=O)[C@H](CC(=O)O)N(C)C(C)=O)C2)cc1 (stereo partly drawn) [Example 13, (S)-3-(Acetyl-methyl-amino)-4-[3-(4′,5′-difluoro-2′-methoxy-biphenyl-4-yloxymethyl)-piperidin-1-yl]-4-oxo-butyric acid] | 12.3 | 2.12
16 | COc1cc(F)c(F)cc1-c1ccc(OCC2CCCN(C(=O)C3CN(C(=O)OC(C)(C)C)CC3C(=O)O)C2)cc1 (stereo not drawn) [Example 14, 4-[3-(4′,5′-Difluoro-2′-methoxy-biphenyl-4-yloxymethyl)-piperidine-1-carbonyl]-pyrrolidine-1,3-dicarboxylic acid 1-tert-butyl ester] | 3.72 | 1.94
17 | COc1cc(F)c(F)cc1-c1ccc(OCC2CCCN(C(=O)C3CN(C(C)=O)CC3C(=O)O)C2)cc1 (stereo not drawn) [Example 15, 1-Acetyl-4-[3-(4′,5′-difluoro-2′-methoxy-biphenyl-4-yloxymethyl)-piperidine-1-carbonyl]-pyrrolidine-3-carboxylic acid] | 5.78 | 3.65
18 | COc1cc(F)c(F)cc1-c1ccc(OCC2CCCN(C(=O)C3CN(C(N)=O)CC3C(=O)O)C2)cc1 (stereo not drawn) [Example 16, 1-Carbamoyl-4-[3-(4′,5′-difluoro-2′-methoxy-biphenyl-4-yloxymethyl)-piperidine-1-carbonyl]-pyrrolidine-3-carboxylic acid] | 6.48 | 0.42
19 | COc1cc(F)c(F)cc1-c1ccc(OCC2CCCN(C(=O)C(C)C(=O)O)C2)cc1 (stereo not drawn) [Example 17, 3-[3-(4′,5′-Difluoro-2′-methoxy-biphenyl-4-yloxymethyl)-piperidin-1-yl]-2-methyl-3-oxo-propionic acid] | 0.68 | 0.29
20 | CCC(C(=O)O)C(=O)N1CCCC(COc2ccc(-c3cc(F)c(F)cc3OC)cc2)C1 (stereo not drawn) [Example 18, 2-[3-(4′,5′-Difluoro-2′-methoxy-biphenyl-4-yloxymethyl)-piperidine-1-carbonyl]-butyric acid] | 0.98 | –
21 | COc1cc(F)c(F)cc1-c1ccc(OCC2CCCN(C(=O)C(C(=O)O)C(C)(C)C)C2)cc1 (stereo not drawn) [Example 19, 2-[3-(4′,5′-Difluoro-2′-methoxy-biphenyl-4-yloxymethyl)-piperidine-1-carbonyl]-3,3-dimethyl-butyric acid] | 5.35 | 2.21
22 | COc1cc(F)c(F)cc1-c1ccc(OCC2CCCN(C(=O)CC(N)=O)C2)cc1 (stereo not drawn) [Example 20, 3-[3-(4′,5′-Difluoro-2′-methoxy-biphenyl-4-yloxymethyl)-piperidin-1-yl]-3-oxo-propionamide] | 12.7 | 6.34
23 | COc1cc(F)c(F)cc1-c1ccc(OCC2CCCN(C(=O)C3CCS(=O)(=O)N3)C2)cc1 (stereo not drawn) [Example 21, [3-(4′,5′-Difluoro-2′-methoxy-biphenyl-4-yloxymethyl)-piperidin-1-yl]-(1,1-dioxido-3-isothiazolidin-3-yl)-methanone] | 7.3 | –
24 | COc1cc(F)c(F)cc1-c1ccc(OCC2CCCN(C(=O)N(CC(=O)O)Cc3ccccc3)C2)cc1 (stereo not drawn) [Example 22, {Benzyl-[3-(4′,5′-difluoro-2′-methoxy-biphenyl-4-yloxymethyl)-piperidine-1-carbonyl]-amino}-acetic acid] | 2.65 | 0.12
25 | COc1cc(F)c(F)cc1-c1ccc(OCC2CCCN(C(=O)N(C)CC(=O)O)C2)cc1 (stereo not drawn) [Example 25, {[3-(4′,5′-Difluoro-2′-methoxy-biphenyl-4-yloxymethyl)-piperidine-1-carbonyl]-methyl-amino}-acetic acid] | 0.29 | 0.02
26 | COc1cc(F)c(F)cc1-c1ccc(OCC2CCN(C(=O)N(C)CC(=O)O)C2)cc1 (stereo not drawn) [Example 26, {[3-(4′,5′-Difluoro-2′-methoxy-biphenyl-4-yloxymethyl)-pyrrolidine-1-carbonyl]-methyl-amino}-acetic acid] | 24.7 | 5.97
27 | COc1cc(F)c(F)cc1-c1ccc(OCC2CCCN(C(=O)N3CCC[C@H]3C(=O)O)C2)cc1 (stereo partly drawn) [Example 27, (S)-1-[3-(4′,5′-Difluoro-2′-methoxy-biphenyl-4-yloxymethyl)-piperidine-1-carbonyl]-pyrrolidine-2-carboxylic acid] | 1.29 | 0.22
28 | COc1cc(F)c(F)cc1-c1ccc(OCC2CCCN(C(=O)N(CCC(=O)O)Cc3ccccc3)C2)cc1 (stereo not drawn) [Example 28, 3-{Benzyl-[3-(4′,5′-difluoro-2′-methoxy-biphenyl-4-yloxymethyl)-piperidine-1-carbonyl]-amino}-propionic acid] | 6.29 | 2.52
